Test results reported in patent US10328054B2, “Substituted pyrrolidines as mGluR5 antagonists” (Hua Medicine (Shanghai) Ltd., priority 2015, dated 2019).

Molecular target: recombinant rat mGluR5 (Rattus norvegicus (Rat), UniProt P31424)
Assay: Functional calcium flux assay (FLIPR)
Format: cell-based
Settings: HEK293 cells stably expressing recombinant rat mGluR5; inhibition of glutamate-evoked [Ca2+]i increase, 15 min incubation of test compound
Procedure: For functional assays, HEK293 cells stably expressing recombinant rat mGluR5 were seeded in 384-well plates and dye loaded using Fluo-8. Cells were then washed to remove the un-incorporated dye. Antagonist evaluation was performed following a 15 min incubation of the test compound followed by the addition of submaximal concentration of glutamate. Intracellular calcium ([Ca^2+]i) measurements were performed using a fluorometric imaging plate reader (FLIPR, Molecular Devices). The glutamate-evoked increase in [Ca^2+]i in the presence of the test compounds was compared to the response to glutamate alone (the positive control). Antagonist inhibition curves were fitted with a 4-parameter logistic equation giving IC50 values, and Hill coefficients using an iterative nonlinear curve fitting algorithm.
The tables below provide IC50 data in this assay. In the activity column, A=IC50>1,000 and <5,000 nM; B=IC50>500 and <1,000 nM and C=IC50<500 nM.

Chain of recombinant rat mGluR5 (P31424 21-1203): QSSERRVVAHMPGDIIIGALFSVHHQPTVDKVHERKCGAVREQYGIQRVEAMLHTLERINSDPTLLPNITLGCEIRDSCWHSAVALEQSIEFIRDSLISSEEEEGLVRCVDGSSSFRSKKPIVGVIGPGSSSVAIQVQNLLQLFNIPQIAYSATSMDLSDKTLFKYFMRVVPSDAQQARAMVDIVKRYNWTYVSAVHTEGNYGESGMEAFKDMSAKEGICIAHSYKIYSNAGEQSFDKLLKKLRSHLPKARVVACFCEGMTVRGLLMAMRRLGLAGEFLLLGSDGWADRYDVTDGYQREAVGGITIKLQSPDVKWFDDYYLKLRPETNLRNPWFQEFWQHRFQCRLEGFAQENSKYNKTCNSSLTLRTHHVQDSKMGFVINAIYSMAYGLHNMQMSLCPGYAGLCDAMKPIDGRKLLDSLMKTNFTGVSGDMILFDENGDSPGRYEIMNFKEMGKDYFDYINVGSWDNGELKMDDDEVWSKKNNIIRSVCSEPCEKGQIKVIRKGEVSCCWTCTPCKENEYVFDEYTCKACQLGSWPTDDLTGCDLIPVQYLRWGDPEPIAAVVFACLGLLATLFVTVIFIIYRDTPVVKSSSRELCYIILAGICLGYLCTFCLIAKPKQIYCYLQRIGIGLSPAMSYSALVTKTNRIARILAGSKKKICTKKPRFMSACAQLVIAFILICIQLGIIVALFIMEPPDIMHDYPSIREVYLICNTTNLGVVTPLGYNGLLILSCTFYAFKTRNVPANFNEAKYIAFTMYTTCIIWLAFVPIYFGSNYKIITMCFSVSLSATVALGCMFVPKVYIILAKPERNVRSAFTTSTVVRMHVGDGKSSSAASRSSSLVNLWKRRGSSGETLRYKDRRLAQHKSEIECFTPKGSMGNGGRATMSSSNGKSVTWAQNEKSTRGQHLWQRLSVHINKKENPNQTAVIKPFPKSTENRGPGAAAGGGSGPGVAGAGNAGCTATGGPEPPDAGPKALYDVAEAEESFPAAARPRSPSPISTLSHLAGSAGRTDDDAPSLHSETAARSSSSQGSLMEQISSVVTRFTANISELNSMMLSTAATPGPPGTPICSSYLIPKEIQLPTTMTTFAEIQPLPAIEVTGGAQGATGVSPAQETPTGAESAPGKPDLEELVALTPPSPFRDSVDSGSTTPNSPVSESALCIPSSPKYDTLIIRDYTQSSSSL

Question: With C(#CC12CC1CN(c1ccccc1)C2)c1ccccn1 (stereo not shown) [Example Compound 10, 3-phenyl-1-(pyridin-2-ylethynyl)-3-azabicyclo[3.1.0]hexane] as the molecule, how does the IC50 read?
Answer: < 500 nM

Question: With O=S(=O)(c1ccc(Cl)cc1)N1CC2CC2(C#Cc2ccccn2)C1 (stereo not shown) [Example Compound 35, 3-((4-chlorophenyl)sulfonyl)-1-(pyridin-2-ylethynyl)-3-azabicyclo[3.1.0]hexane] as the molecule, how does the IC50 read?
Answer: < 500 nM

Question: For Cc1nc(C#CC23CC2CN(C(=O)c2cccc(Cl)c2)C3)cs1 (stereo not shown) [Example Compound 49, (3-chlorophenyl)-(1-((2-methylthiazol-4-yl)ethynyl)-3-azabicyclo[3.1.0]hexan-3-yl)methanone], which IC50 is on record?
Answer: < 500 nM

Question: How did the IC50 turn out when Cc1nc(C#CC23CC2CN(C(=O)C(C)(C)C)C3)cs1 (stereo not shown) [Example Compound 69, 2,2-dimethyl-1-(1-((2-methylthiazol-4-yl)ethynyl)-3-azabicyclo[3.1.0]hexan-3-yl)propan-1-one] was run?
Answer: < 500 nM

Question: For Clc1ccc(N2CC3CC3(C#Cc3ccccn3)C2)cc1 (stereo not shown) [Example Compound 19, 3-(4-chlorophenyl)-1-(pyridin-2-ylethynyl)-3-azabicyclo[3.1.0]hexane], which IC50 is on record?
Answer: 500 to 1000 nM

Question: For Cc1nc(C#CC23CC2CN(c2cncc(F)c2)C3)cs1 (stereo not shown) [Example Compound 48, 4-((3-(S-fluoropyridin-3-yl)-3-azabicyclo[3.1.0]hexan-1-yl)ethynyl)-2-methylthiazole], which IC50 is on record?
Answer: < 500 nM

Question: C(#CC12CC1CN(c1ccc3[nH]ccc3n1)C2)c1ccccn1 (stereo not shown) [Example Compound 24, 5-(1-(pyridin-2-ylethynyl)-3-azabicyclo[3.1.0]hexan-3-yl)-1H-pyrrolo[3,2-b]pyridine] was tested. Which IC50 did it give?
Answer: 1000 to 5000 nM

Question: With N#Cc1cc(F)cc(N2CC3CC3(C#Cc3ncccn3)C2)c1 (stereo not shown) [Example Compound 8, 3-fluoro-5-(1-(pyrimidin-2-ylethynyl)-3-azabicyclo[3.1.0]hexan-3-yl) benzonitrile] as the molecule, how does the IC50 read?
Answer: < 500 nM

Question: For O=C(C1CCCC1)N1C[C@H]2C[C@@]2(C#Cc2ccccn2)C1 [Example Compound 51, cyclopentyl((1R,5S)-1-(pyridin-2-ylethynyl)-3-azabicyclo[3.1.0]hexan-3-yl)methanone], which IC50 is on record?
Answer: < 500 nM

Question: Fc1cc(F)cc(N2CC3CC3(C#Cc3ncccn3)C2)c1 (stereo not shown) [Example Compound 45, 3-(3,5-difluorophenyl)-1-(pyrimidin-2-ylethynyl)-3-azabicyclo[3.1.0]hexane] was tested. Which IC50 did it give?
Answer: < 500 nM

Question: Which IC50 does the source give for C(#CC12CC1CN(c1ccc3[nH]cnc3c1)C2)c1ccccn1 (stereo not shown) [Example Compound 25, 5-(1-(pyridin-2-ylethynyl)-3-azabicyclo[3.1.0]hexan-3-yl)-1H-benzo[d]imidazole] here?
Answer: 1000 to 5000 nM

Question: Fc1ccc(N2CC3CC3(C#Cc3ccccn3)C2)cc1 (stereo not shown) [Example Compound 2, 3-(4-fluorophenyl)-1-(pyridin-2-ylethynyl)-3-azabicyclo[3.1.0]hexane] was tested. Which IC50 did it give?
Answer: < 500 nM

Question: Which IC50 does the source give for O=C(c1ccc(Cl)cc1)N1CC2CC2(C#Cc2ccccn2)C1 (stereo not shown) [Example Compound 33, (4-chlorophenyl)(1-(pyridin-2-ylethynyl)-3-azabicyclo[3.1.0]hexan-3-yl)methanone] here?
Answer: < 500 nM

Question: With O=C(c1ccc(Cl)nc1)N1CC2CC2(C#Cc2ccccn2)C1 (stereo not shown) [Example Compound 56, (6-chloropyridin-3-yl)-(1-(pyridin-2-ylethynyl)-3-azabicyclo[3.1.0]hexan-3-yl)methanone] as the molecule, how does the IC50 read?
Answer: < 500 nM

Question: Which IC50 does the source give for Fc1cc(Cl)ccc1N1CC2CC2(C#Cc2ccccn2)C1 (stereo not shown) [Example Compound 21, 3-(4-chloro-2-fluorophenyl)-1-(pyridin-2-ylethynyl)-3-azabicyclo[3.1.0]hexane] here?
Answer: 500 to 1000 nM

Question: For Fc1cncc(N2CC3CC3(C#Cc3ncccn3)C2)c1 (stereo not shown) [Example Compound 63, 3-(5-fluoropyridin-3-yl)-1-(pyrimidin-2-ylethynyl)-3-azabicyclo[3.1.0]hexane], which IC50 is on record?
Answer: < 500 nM

Question: With N#Cc1cc(F)cc(N2CC3CC3(C#Cc3ccccn3)C2)c1 (stereo not drawn) [Example Compound 1, 3-fluoro-S-(1-(pyridin-2-ylethynyl)-3-azabicyclo[3.1.0]hexan-3-yl) benzonitrile] as the molecule, how does the IC50 read?
Answer: < 500 nM

Question: For O=C(Cc1ccccc1)N1CC2CC2(C#Cc2ccccn2)C1 (stereo not shown) [Example Compound 29, 2-phenyl-1-(1-(pyridin-2-ylethynyl)-3-azabicyclo[3.1.0]hexan-3-yl)ethanone], which IC50 is on record?
Answer: < 500 nM

Question: Which IC50 does the source give for Fc1cncc(N2CC3CC3(C#Cc3ccccn3)C2)c1 (stereo not shown) [Example Compound 4] here?
Answer: < 500 nM

Question: How did the IC50 turn out when Cc1nc(C#CC23CC2CN(c2cccc(C#N)c2)C3)cs1 (stereo not shown) [Example Compound 47, 3-(1-((2-methylthiazol-4-yl)ethynyl)-3-azabicyclo[3.1.0]hexan-3-yl)benzonitrile] was run?
Answer: < 500 nM

Question: Which IC50 does the source give for O=C(c1cncc(Cl)c1)N1C[C@H]2C[C@@]2(C#Cc2ccccn2)C1 [Example Compound 54, (5-chloropyridin-3-yl)((1R,5S)-1-(pyridin-2-ylethynyl)-3-azabicyclo[3.1.0]hexan-3-yl)methanone] here?
Answer: < 500 nM

Question: For CCCCC(=O)N1CC2CC2(C#Cc2csc(C)n2)C1 (stereo not shown) [Example Compound 67, 1-(1-((2-mehylthyiazol-4-yl)ethynyl)-3-azabicyclo[3.1.0]hexan-3-yl)pentan-1-one], which IC50 is on record?
Answer: < 500 nM

Question: For O=C(c1cccc(Cl)c1)N1CC2CC2(C#Cc2ccccn2)C1 (stereo not shown) [Example Compound 26, (3-chlorophenyl)(1-(pyridin-2-ylethynyl)-3-azabicyclo[3.1.0]hexan-3-yl)methanone], which IC50 is on record?
Answer: < 500 nM

Question: O=C(c1ccccc1)N1CC2CC2(C#Cc2ccccn2)C1 (stereo not shown) [Example Compound 28, phenyl(1-(pyridin-2-ylethynyl) 3-azabicyclo[3.1.0]hexan-3-yl)methanone] was tested. Which IC50 did it give?
Answer: < 500 nM

Question: Fc1cc(Cl)cc(N2CC3CC3(C#Cc3ccccn3)C2)c1 (stereo not shown) [Example Compound 20, 3-(3-chloro-5-fluorophenyl)-1-(pyridin-2-ylethynyl)-3-azabicyclo[3.1.0]hexane] was tested. Which IC50 did it give?
Answer: < 500 nM

Question: With N#Cc1cccc(N2CC3CC3(C#Cc3ccccn3)C2)c1 (stereo not shown) [Example Compound 40, 3-(1-(pyridin-2-ylethynyl)-3-azabicyclo[3.1.0]hexan-3-yl)benzonitrile] as the molecule, how does the IC50 read?
Answer: < 500 nM

Question: For N#Cc1cccc(N2CC3CC3(C#Cc3ccccn3)C2)n1 (stereo not shown) [Example Compound 38, 6-(1-(pyridin-2-ylethynyl)-3-azabicyclo[3.1.0]hexan-3-yl)picolinonitrile], which IC50 is on record?
Answer: < 500 nM

Question: For O=S(=O)(c1ccccc1)N1CC2CC2(C#Cc2ccccn2)C1 (stereo not shown) [Example Compound 5, 3-(phenylsulfonyl)-1-(pyridin-2-ylethynyl)-3-azabicyclo[3.1.0]hexane], which IC50 is on record?
Answer: < 500 nM
